Test system: keratinocytes (Hacat cell line)
Test: Global gene expression (RNA-seq) in treated keratinocytes
Type: cell-based, human
Settings: for Fold change (gene expression): 40 μM vs untreated; for Fold Enrichment / Number of Genes Differentially Expressed: 40 μM
Experimental: To determine specific expression changes dimethoxytolyl propylresorcinol exerted on human keratinocyte aging genes, keratinocytes (Hacat cell line) were treated dimethoxytolyl propylresorcinol at 40 μM and gene expression was analyzed by RNA-seq. Differential gene expression was compared to untreated keratinocytes and cells treated with 40 μM Retinol A to find genes involved in aging. […] Retinol was chosen as a positive control because retinoids have been described as having effective anti-aging and anti-wrinkle effects (Zasada M, 2019). We directly compared the effects of Retinol on keratinocytes with the same concentration of dimethoxytolyl propylresorcinol.

[1] = Gene Cluster Activation of MAPK activity
[2] = Gene Cluster Calcium ion binding
[3] = Gene Cluster Cell-cell signaling
[4] = Gene Cluster Cellular response to lipopolysaccharide
[5] = Gene Cluster Cellular response to retinoic acid
[6] = Gene Cluster Epidermis development
[7] = Gene Cluster Epithelial cell differentiation
[8] = Gene Cluster Extracellular exosome
[9] = Gene Cluster Extracellular matrix organization
[10] = Gene Cluster Extracellular region
[11] = Gene Cluster Extracellular space
[12] = Gene Cluster Growth factor activity
[13] = Gene Cluster Hyaluronan biosynthetic process
[14] = Gene Cluster Inflammatory response
[15] = Gene Cluster Intermediate filament cytoskeleton organization
[16] = Gene Cluster Keratinocyte differentiation
[17] = Gene Cluster Negative regulation of ERK1 and ERK2 cascade
[18] = Gene Cluster Negative regulation of cell proliferation
[19] = Gene Cluster Negative regulation of endopeptidase activity
[20] = Gene Cluster Neutrophil chemotaxis
[21] = Gene Cluster O-glycan processing
[22] = Gene Cluster Osteoblast differentiation
[23] = Gene Cluster Positive regulation of angiogenesis
[24] = Gene Cluster Positive regulation of cell migration
[25] = Gene Cluster Positive regulation of cell proliferation
[26] = Gene Cluster Positive regulation of gene expression
[27] = Gene Cluster Positive regulation of smooth muscle cell proliferation
[28] = Gene Cluster Proteinaceous extracellular matrix
[29] = Gene Cluster Transforming growth factor beta receptor binding

In the case of `COc1ccc(CCCc2ccc(O)cc2O)c(OC)c1C` [dimethoxytolyl propylresorcinol, 1-(3-methyl-2,4-dimethoxyphenyl)-3-(2′,4′-dihydroxyphenyl)-propane], the “Fold change (gene expression)” value (AHR - Aryl hydrocarbon receptor, Oxidative stress) was 1.73 fold, the “Fold change (gene expression)” value (ANGPTL4 - Angiopoietin-like 4, Negative regulation of growth/Angiogenesis) was 8.23 fold and the “Fold change (gene expression)” value (ANOS1 - Anosmin 1, ECM/Nerve adhesion) was 0.49 fold. For the same molecule, the “Fold change (gene expression)” value (BMP4 - Bone morphogenetic protein 4, Growth) was 0.41 fold, the “Fold change (gene expression)” value (C3orf33 - Chromosome 3 open reading frame 33, Negative regulation of growth) was 3.03 fold and the “Fold change (gene expression)” value (CD1D - CD1d molecule, ECM) was 0.36 fold. For the same molecule, the “Fold change (gene expression)” value (CDK5R1 - Cyclin-dependent kinase 5 activator 1, Growth/Skin barrier) was 1.54 fold, the “Fold change (gene expression)” value (CEACAM1 - CEA cell adhesion molecule 1, Cell adhesion) was 2.01 fold and the “Fold change (gene expression)” value (COL1A1 - Collagen type 1, ECM) was 1.89 fold. For the same molecule, the “Fold change (gene expression)” value (COL5A1 - Collagen type V alpha 1 chain, ECM) was 0.24 fold, the “Fold change (gene expression)” value (CRISPLD2 - Cysteine-rich secretory protein LCCL domain-containing 2, ECM) was 2.56 fold and the “Fold change (gene expression)” value (CXCL3 - C-X-C motif chemokine ligand 3, Immune signaling) was 8.16 fold. For the same molecule, the “Fold change (gene expression)” value (CYP1A1 - Cytochrome P450 family 1 subfamily A member 1, Drug metabolism) was 5.04 fold, the “Fold change (gene expression)” value (ECM1 - Extracellular matrix protein 1, ECM) was 2.49 fold and the “Fold change (gene expression)” value (EPHA4 - Ephrin type-A receptor 4, Cell adhesion, cell communication) was 0.42 fold. For the same molecule, the “Fold change (gene expression)” value (EREG - Epiregulin, Growth) was 9.61 fold, the “Fold change (gene expression)” value (FABP5 - Fatty acid binding protein 5, Skin barrier) was 1.68 fold and the “Fold change (gene expression)” value (FGF1 - Fibroblast growth factor 1, Growth) was 0.43 fold. The “Fold change (gene expression)” value (FGF11 - Fibroblast growth factor 11, Growth) was 0.56 fold, the “Fold change (gene expression)” value (FLRT2 - Fibronectin leucine-rich transmembrane protein 2, ECM) was 0.30 fold and the “Fold Enrichment” value [1] was 2.39 fold. The “Number of Genes Differentially Expressed” value [1] was 14, the “Fold Enrichment” value (Gene Cluster Angiogenesis) was 2.79 fold and the “Number of Genes Differentially Expressed” value (Gene Cluster Angiogenesis) was 34. The “Fold Enrichment” value [2] was 1.49 fold, the “Number of Genes Differentially Expressed” value [2] was 58 and the “Fold Enrichment” value (Gene Cluster Cell development) was 4.12 fold. For the same molecule, the “Number of Genes Differentially Expressed” value (Gene Cluster Cell development) was 9, the “Fold Enrichment” value (Gene Cluster Cell surface) was 1.85 fold and the “Number of Genes Differentially Expressed” value (Gene Cluster Cell surface) was 53. For the same molecule, the “Fold Enrichment” value [3] was 2.59 fold, the “Number of Genes Differentially Expressed” value [3] was 36 and the “Fold Enrichment” value [4] was 3.08 fold. For the same molecule, the “Number of Genes Differentially Expressed” value [4] was 19, the “Fold Enrichment” value [5] was 3.14 fold and the “Number of Genes Differentially Expressed” value [5] was 12. For the same molecule, the “Fold Enrichment” value [6] was 4.52 fold, the “Number of Genes Differentially Expressed” value [6] was 21 and the “Fold Enrichment” value [7] was 2.87 fold. The “Number of Genes Differentially Expressed” value [7] was 11, the “Fold Enrichment” value [8] was 1.23 fold and the “Number of Genes Differentially Expressed” value [8] was 183. For the same molecule, the “Fold Enrichment” value [9] was 2.05 fold, the “Number of Genes Differentially Expressed” value [9] was 22 and the “Fold Enrichment” value [10] was 1.60 fold. For the same molecule, the “Number of Genes Differentially Expressed” value [10] was 136, the “Fold Enrichment” value [11] was 1.97 fold and the “Number of Genes Differentially Expressed” value [11] was 140. For the same molecule, the “Fold Enrichment” value [12] was 3.63 fold, the “Number of Genes Differentially Expressed” value [12] was 32 and the “Fold Enrichment” value (Gene Cluster Growth) was 5.23 fold. The “Number of Genes Differentially Expressed” value (Gene Cluster Growth) was 8, the “Fold Enrichment” value (Gene Cluster Heparin binding) was 2.53 fold and the “Number of Genes Differentially Expressed” value (Gene Cluster Heparin binding) was 22. For the same molecule, the “Fold Enrichment” value [13] was 10.45 fold, the “Number of Genes Differentially Expressed” value [13] was 4 and the “Fold Enrichment” value [14] was 2.61 fold. The “Number of Genes Differentially Expressed” value [14] was 54, the “Fold Enrichment” value [15] was 7.32 fold and the “Number of Genes Differentially Expressed” value [15] was 6. The “Fold Enrichment” value [16] was 3.13 fold, the “Number of Genes Differentially Expressed” value [16] was 13 and the “Fold Enrichment” value [17] was 3.47 fold. The “Number of Genes Differentially Expressed” value [17] was 11, the “Fold Enrichment” value [18] was 2.17 fold and the “Number of Genes Differentially Expressed” value [18] was 47. The “Fold Enrichment” value [19] was 2.42 fold, the “Number of Genes Differentially Expressed” value [19] was 16 and the “Fold Enrichment” value [20] was 3.33 fold. The “Number of Genes Differentially Expressed” value [20] was 12, the “Fold Enrichment” value [21] was 3.05 fold and the “Number of Genes Differentially Expressed” value [21] was 10. The “Fold Enrichment” value [22] was 2.64 fold, the “Number of Genes Differentially Expressed” value [22] was 15 and the “Fold Enrichment” value [23] was 3.02 fold. The “Number of Genes Differentially Expressed” value [23] was 19, the “Fold Enrichment” value [24] was 2.88 fold and the “Number of Genes Differentially Expressed” value [24] was 29. For the same molecule, the “Fold Enrichment” value [25] was 1.96 fold, the “Number of Genes Differentially Expressed” value [25] was 50 and the “Fold Enrichment” value [26] was 1.82 fold. The “Number of Genes Differentially Expressed” value [26] was 26, the “Fold Enrichment” value [27] was 4.88 fold and the “Number of Genes Differentially Expressed” value [27] was 16. The “Fold Enrichment” value [28] was 2.47 fold, the “Number of Genes Differentially Expressed” value [28] was 35 and the “Fold Enrichment” value (Gene Cluster Response to drug) was 2.04 fold. The “Number of Genes Differentially Expressed” value (Gene Cluster Response to drug) was 34, the “Fold Enrichment” value [29] was 4.82 fold and the “Number of Genes Differentially Expressed” value [29] was 11. For the same molecule, the “Fold Enrichment” value (Gene Cluster Wound healing) was 3.20 fold, the “Number of Genes Differentially Expressed” value (Gene Cluster Wound healing) was 14 and the “Fold change (gene expression)” value (HAS2 - hyaluronan synthase 2, ECM) was 5.48 fold. For the same molecule, the “Fold change (gene expression)” value (HAS3 - hyaluronan synthase 3, ECM) was 3.59 fold, the “Fold change (gene expression)” value (HBEGF - Heparin-binding EGF-like growth factor, Growth) was 8.61 fold and the “Fold change (gene expression)” value (HIF1A - Hypoxia-inducible factor 1 subunit alpha, Oxidative stress) was 1.36 fold. For the same molecule, the “Fold change (gene expression)” value (HMOX1 - Heme oxygenase 1, Oxidative stress) was 5.23 fold, the “Fold change (gene expression)” value (HS3ST1 - Heparan sulfate-glucosamine 3-sulfotransferase 1, ECM) was 2.28 fold and the “Fold change (gene expression)” value (IL1A - Interleukin 1 alpha, Cytokine signaling) was 6.60 fold. For the same molecule, the “Fold change (gene expression)” value (IL1RL1 - Interleukin 1 receptor-like 1, Immune signaling) was 17.29 fold, the “Fold change (gene expression)” value (ITGA6 - Integrin subunit alpha 6, Cell adhesion) was 1.44 fold and the “Fold change (gene expression)” value (ITGBL1 - Integrin subunit beta-like 1, Cell adhesion) was 0.68 fold. For the same molecule, the “Fold change (gene expression)” value (KIF13A - Kinesin family member 13A, Cytoskeleton/secretion) was 0.67 fold, the “Fold change (gene expression)” value (LAMA3 - Laminin subunit alpha 3, ECM) was 1.59 fold and the “Fold change (gene expression)” value (LAMC2 - Laminin subunit gamma 2, ECM) was 2.72 fold. For the same molecule, the “Fold change (gene expression)” value (NGF - Nerve growth factor, Growth) was 113.25 fold, the “Fold change (gene expression)” value (NID2 - Nidogen 2 precursor, ECM) was 1.45 fold and the “Fold change (gene expression)” value (OCLN - Occludin, Skin barrier) was 1.42 fold. The “Fold change (gene expression)” value (OLFM4 - Olfactomedin 4, ECM) was 0.10 fold, the “Fold change (gene expression)” value (PARP15 - Poly (ADP-Ribose) polymerase family member 15, DNA damage repair/transcription regulation) was 98.2 fold and the “Fold change (gene expression)” value (PI3 - Peptidase inhibitor 3, elastase inhibitor, Elastin genes) was 10.5 fold. For the same molecule, the “Fold change (gene expression)” value (PSAPL1 - Prosaposin-like 1, ECM) was 0.30 fold, the “Fold change (gene expression)” value (PSG5 - Pregnancy specific beta-1-glycoprotein 5, ECM) was 0.30 fold and the “Fold change (gene expression)” value (PTPRR - Protein tyrosine phosphatase receptor type R, Negative regulation of growth) was 3.96 fold. The “Fold change (gene expression)” value (RAPGEF3 - Rap guanine nucleotide exchange factor 3, Plasma membrane fusion/cytoskeleton) was 1.78 fold, the “Fold change (gene expression)” value (SELE - E-Selectin, Cell adhesion) was 99.30 fold and the “Fold change (gene expression)” value (SEMA3D - Semaphorin 3D, ECM/Nerve growth) was 0.54 fold. The “Fold change (gene expression)” value (SERPINB2 - Serpin family B member 2, Skin barrier) was 4.25 fold, the “Fold change (gene expression)” value (SERPINB4 - Serpin family B member 4, Skin barrier) was 6.37 fold and the “Fold change (gene expression)” value (SIRT1 - Sirtuin 1, Transcription regulation) was 1.30 fold. The “Fold change (gene expression)” value (SIRT7 - Sirtuin 7, Transcription regulation) was 1.41 fold, the “Fold change (gene expression)” value (SOD2 - Superoxide dismutase 2, Oxidative stress) was 1.54 fold and the “Fold change (gene expression)” value (TFP12 - Tissue factor pathway inhibitor 2, ECM) was 2.37 fold. For the same molecule, the “Fold change (gene expression)” value (TGFB1 - Transforming growth factor beta 1, TGF-β signaling) was 1.30 fold, the “Fold change (gene expression)” value (TLR4 - Toll-like receptor 4, Immune signaling) was 3.41 fold and the “Fold change (gene expression)” value (TNC - Tenascin C, ECM/Nerve growth) was 0.50 fold. For the same molecule, the “Fold change (gene expression)” value (TP73 - Tumor protein P73, Growth) was 0.35 fold, the “Fold change (gene expression)” value (TXNRD1 - Thioredoxin reductase 1, Oxidative stress) was 1.52 fold and the “Fold change (gene expression)” value (UGCG - UDP-glucose ceramide glucosyltransferase, Lipid metabolism and transport) was 1.56 fold. The “Fold change (gene expression)” value (VIT - Vitrin, ECM) was 0.08 fold.
